Test results reported in patent US8022043B2, “Ceramide derivatives as modulators of immunity and autoimmunity” (Albert Einstein College of Medicine of Yeshiva University, priority 2004, dated 2011).

Tests used:
NOD mice = details: twice weekly injection from 4 weeks of age, reduction from 75%; cited from earlier work
[1] = test system: Bulk splenocytes from C57BL/6 mice; assay: Splenocyte proliferation assay (3H-thymidine incorporation); format: cell-based; details: Mus musculus, concentration giving 50% maximal response in proliferation of splenocyte cultures
C57BL/6 mice = assay: Serum IL-4 and IFNγ after a single i.p. injection; format: in vivo; details: 20 hours after single i.p. injection of 4.8 nanomoles
Description: Serum levels of L-4 and IFNγ after a single injection of DB01-1, DB03-4, or DB03-5 are shown. C57BL/6 mice (11-13 weeks old) were given a single i.p. injection of 4.8 nanomoles of the compounds or phosphate buffered saline (PBS)/vehicle control. Serum cytokine levels were measured 2 and 20 hours later by capture ELISA. Bars show means of three mice, with standard deviation. Note that DB01-1 has nearly identical structure to KRN7000 (C24 fatty acid as compared to C26) and has activity that is indistinguishable from KRN7000 in multiple bioassays. We use DB01-1 as a “KRN7000 mimic” because it has been synthesized by our group and is readily available for our studies, and KRN7000 was unavailable due to license restrictions.
A most intriguing property of KRN7000 analogues is that in some cases they may elicit immune responses that are qualitatively different from those that occur following stimulation with the parent compound. […] This selective activation of IL-4 production by NK T cells was proposed to be the basis for the enhanced therapeutic effects of OCH in the EAE model of central nervous system autoimmune disease. We have observed a similar in vivo effect on the nature of the NK T cell response using several of our ceramide-like glycolipids. […] These responses are similar to those seen for DB01-1, an analogue that is structurally almost identical to KRN7000 (C24 fatty acid instead of C26, otherwise identical) and indistinguishable in terms of its activity in our hands. […] This selective IL-4 induction is virtually identical to that reported for the OCH analogue, and thus illustrates the potential for amino substituted analogues of KRN7000 to induce qualitatively different immunomodulatory effects in vivo. The results reported in FIG. 9 were obtained by measuring serum levels of IL-4 and IFNγ after administering a single injection of […], DB03-4, or DB03-5 to C57BL/6 mice. C57BL/6 mice (11-13 weeks old) were given a single i.p. injection of 4.8 nanomoles of the ceramide-like glycolipids or PBS/vehicle control. Serum cytokine levels were measured 2 and 20 hours later by capture ELISA. Bars show means of three mice, with standard deviation.
For experiments involving in vivo treatment of mice with the ceramide-like glycolipids, the ceramide-like glycolipids were administered by i.p. or i.v. injection in 0.2 ml PBS+0.025% Tween-20, or in vehicle alone. A typical dose is about 4-5 nmoles per animal per injection. Representative references for administering an α-galactosyl ceramide to mice by i.p., i.v. or p.o. routes are S. Sharif et al., Activation of natural killer T cells by alpha-galactosylceramide treatment prevents the onset and recurrence of autoimmune Type 1 diabetes, Nat. Med., Sep. 7, 2001, (9):1057-62 and K. Miyamoto et al., A synthetic glycolipid prevents autoimmune encephalomyelitis by inducing TH2 bias of natural killer T cells, Nature. Oct. 4, 2001, 413(6855):5314.

[2] = test system: Bulk splenocytes from C57BL/6 mice; assay: Cytokine response of splenocyte cultures (IL-4 and IFNγ ELISA); format: cell-based; details: 500 nM glycolipid, 48 hours
Description: The cytokine response reported in Table 1 and FIG. 5C was determined by the following procedure: Bulk splenocytes from C57BL/6 mice were plated at 300,000 per well in 96-well flat-bottom tissue culture plates with ceramide-like glycolipids diluted to a concentration of 500 nM in 200 microliters complete medium. After 48 h at 37° C., 150 microliters of supernatant was removed for cytokine measurements. Supernatant levels of IL-4, and IFNγ were measured by standard enzyme-linked immunosorbent assay (ELISA), using capture and biotinylated detection antibody pairs (clones 11B11/BVD6-24G2-biotin, and R4-6A2/XMG1.2-biotin, respectively, from BD Pharmingen, San Diego, Calif.). […] Standards for IL-4 and IFNγ were from Peprotech (Rocky Hill, N.J.).

iNKT cells = assay: In vitro cytokine modulation, murine cell assay system; format: cell-based
Text: The term iNKT cells, as used herein, mean the specific subset of CD1d-dependent T cells that expresses the invariant TCRα chain rearrangement consisting of Vα14-Jα18 in mice, and Vα24-Jα18 in humans. These cells are uniformly reactive to α-galactosylceramides presented by CD1d. These cells are also referred to as “Type 1” NKT cells, and the distinction between the different types of NKT cells and the nomenclature relating to this are summarized in the publication by Godfrey et al., Nat Rev Immunol. 2004 March; 4(3):231-7. Methods for determining cytokine production by iNKT cells in response to CD1d-presented glycolipids for determination of strong or weak agonist activity are described in Yu K O A, Im J S, Molano A, Dutronc Y, Illarionov P A, Forestier C, Fujiwara N, Arias I, Miyake S, Yamamura T, Chang Y-T, Besra G S, Porcelli S A, Modulation of CD1d-restricted NKT cell responses using N-acyl variants of α-galactosylceramides, Proc. Nat. Acad. Sci. (USA), 102:3383-8 (2005), see also Godfrey D I et al., Nat Rev Immunol. 2004 March; 4(3):231-7.

NZB/W-F1 mice = assay: SLE in NZB/W-F1 mice; format: in vivo
NK T hybridoma DN3A4.1-2 = assay: Upregulation of CD40L (CD154), FACS; format: cell-based, mouse; details: 0.5 uM glycolipid, 18 hours, RMA-S/CD1d cells
Description: The upregulation of CD40L by ceramide-like glycolipids reported in FIG. 11 were obtained by incubating NK T hybridoma DN3A4.1-2 with RMA-S/CD1d cells at a ratio of 2:1 in the presence of 0.5 uM of ceramide-like glycolipid for 18 hours. Cells were then resuspended and labeled with mAbs specific for CD5 and CD40L. Levels of CD40L were determined by FACS analysis of the population gated for CD5 staining.

[3] = culture supernatant ELISA, ND = below the reliable level for detection

In the case of `CCCCCCCCCCCCCCCCCCCCCCCCCC(=O)N[C@@H](CO[C@H]1O[C@H](CO)[C@H](O)[C@H](O)[C@H]1O)[C@H](O)[C@H](O)CCCCCCCCCCCCCC` [KRN7000, (2S,3S,4R)-1-O-(α-D-galactopyranosyl)-N-hexacosanoyl-2-amino-1,3,4-octadecanetriol], the incidence of diabetes (NOD mice) is listed as “approximately 5%”.
With `CCCCCCCCCCCCCCCCCCCCCCCC(=O)N[C@@H](COC1OC(CO)C(O)C(O)C1O)[C@H](O)[C@H](O)CCCCCCCCCCCCCC` (some centres unmarked) [DB01-1] the EC50 [1] was 63.6 nM, the “serum IFNγ response” value (C57BL/6 mice) was “strong IFNγ response” and the “IL-4/IFNγ ratio divided by this ratio for DB01-1 (value in parentheses)” value [2] was 1.0. For the same molecule, the “ratio IL-4/IFNγ” value [2] was 0.026, the “Cytokine Response IFNγ” value [2, 3] was 7.29 ng/mL and the “Cytokine Response IL-4” value [2, 3] was 0.19 ng/mL.
In the case of `CCCCCCCCCCCCCCCCCCCCCCCC(=O)N[C@@H](CO[C@@H]1OC(C)[C@@H](O)[C@H](O)C1O)[C@H](O)[C@H](O)CCCCCCCCCCCCCC` (some centres unmarked) [DB03-8], the “agonist activity on iNKT cells” value (iNKT cells; in vitro) is reported as “weak agonist”, the “in vitro activity at modulating cytokines” value (iNKT cells; murine cell assay system) is reported as “show in vitro activity” and the “effect on SLE” value (NZB/W-F1 mice) is reported as “exacerbates SLE”. The CD40L expression (NK T hybridoma DN3A4.1-2) was “capable of inducing CD40L”.
